Key:
[1] = beagle; 200 mg indometacin farnesyl orally, formulated with the named additive
Description: In this test, the crossover method was employed by using six female beagles with the administration of 200 mg of indometacin farnesyl orally to each of them 30 min after breakfast, and sampling their blood at intervals to determine the concentration of indometacin farnesyl in their blood according to HPLC.
Six female beagles were used to determine indometacin farnesyl in the blood by the crossover method.
In the test, each sample was orally administered 30 min after breakfast and 2.5 ml of blood was sampled at intervals to determine the concentration of indometacin farnesyl under the HPLC conditions which will be described below.
The maximum blood concentration, Cmax (μg/ml), and the area under the blood concentration-time curve, AUC (μg hr/ml), 6 h after the administration of each of samples A to F were determined and expressed in terms of relative value with respect to those of a standard formulation.
stationary phase: Nucleosil®10 C18, 4.6 mm diameter×150mm
mobile phase: methanol/water (300/16)

[2] = Rat lymph absorption test (lymph cannulation method, HPLC); type: in vivo; details: SD rats, 12-week old; 5 mg/kg indometacin farnesyl orally, formulated with the named additive
Description: In this test, 5 mg/kg of indometacin farnesyl was orally administered to SD rats (12-week old) and indometacin farnesyl in the lymphatic vessels was determined according to HPLC by the lymph cannulation method.

[3] = cited from earlier work; for adverse reactions: clinical / reported in the literature

Structure (SMILES) | absorption of indometacin farnesyl (in words) [1] | absorption of indometacin farnesyl into lymph (in words) [2] | adverse reactions [3] | antiinflammatory effect ([3]; prior art statement)
CCCCC/C=C\C/C=C\CCCCCCCC(=O)O [linolic acid] | particularly excellent absorption | particularly excellent absorption |  | 
COc1ccc2c(c1)c(CC(=O)O)c(C)n2C(=O)c1ccc(Cl)cc1 [indometacin] |  |  | various adverse reactions such as gastrointestinal or renal disturbances | 
COc1ccc2c(c1)c(CC(=O)OCC=C(C)CC/C=C(\C)CCC=C(C)C)c(C)n2C(=O)c1ccc(Cl)cc1 [indomethacin farnesyl, (6E)-3,7,11-trimethyl-2,6,10-dodecatrienyl 1-(p-chlorobenzoyl)-5-methoxy-2-methyl-lH-indole-3-acetate] |  |  | only slight adverse reactions | long-lasting antiinflammatory
CCCCCCCC/C=C\CCCCCCCC(=O)O [oleic acid] | particularly excellent absorption |  |  | 
